Results from patent US11168088B2 (SHANGHAI HAIYAN PHARMACEUTICAL TECHNOLOGY CO., LTD., priority 2016, dated 2021).
pIC50: −log10 of the molar value.

Experiments:
Format in all cases: biochemical
CDK4 = CDK4 (Homo sapiens (Human), UniProt P11802); assay: In vitro kinase test (LANCE Ultra), CDK4
Excerpt: (§1) Recombinant CDK1/CCNB1 and CDK9/CCNT were purchased from BPS; CDK2/CCNA1, CDK4/CCND1 and CDK6/CCND1 were purchased from Invitrogen; CDK4/CycD3 and CDK6/CycD3 were purchased from Carna. Adenosine triphosphate (ATP) was purchased from Life tech. Substrate Ulight-4EBP1 and the corresponding detection antibody were purchased from Perkinelmer. The detection system was Perkinelmer's LANCE Ultra system.
(§2) In the kinase test, a compound to be tested was 1:3 diluted for 8 gradient points, added into a reaction plate, and then added an appropriate amount of recoinbinase. A buffer [50 mM HEPES […], 10 mM MgCl2, 3 mM MnCl2, 1 mM EGTA, 0.01% Tween-20, 1 mM TCEP] containing ATP/Ulight-4EBP1 premix with predetermined concentration was subsequently added, and the kinase reaction was started at room temperature. A test solution pre-mixed with 10 mM EDTA and detection antibody was added after a suitable reaction time, and then the fluorescence value was read on Tecan infinite pro after reacting for 1 hour at room temperature. The IC50 was calculated using a four-factor model fitting in a XLfit software.

CDK1 = CDK1 (Homo sapiens (Human), UniProt P06493); assay: In vitro kinase test (LANCE Ultra), CDK1
Excerpt: as §1, §2

CDK6 = CDK6 (Homo sapiens (Human), UniProt Q00534); assay: In vitro kinase test (LANCE Ultra), CDK6
Excerpt: as §1, §2

CDK2 = CDK2 (Homo sapiens (Human), UniProt P24941); assay: In vitro kinase test (LANCE Ultra), CDK2
Excerpt: as §1, §2

Chain of CDK1 (P06493 whole entry): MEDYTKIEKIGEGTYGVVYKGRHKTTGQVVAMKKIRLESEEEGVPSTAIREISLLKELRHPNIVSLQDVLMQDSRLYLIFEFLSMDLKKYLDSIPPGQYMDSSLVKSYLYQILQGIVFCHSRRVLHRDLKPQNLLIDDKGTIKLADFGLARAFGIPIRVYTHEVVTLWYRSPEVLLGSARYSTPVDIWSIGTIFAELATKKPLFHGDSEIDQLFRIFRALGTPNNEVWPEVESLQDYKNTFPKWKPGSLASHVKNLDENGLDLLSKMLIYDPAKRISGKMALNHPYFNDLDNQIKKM
Chain of CDK1 (P14635 whole entry partner): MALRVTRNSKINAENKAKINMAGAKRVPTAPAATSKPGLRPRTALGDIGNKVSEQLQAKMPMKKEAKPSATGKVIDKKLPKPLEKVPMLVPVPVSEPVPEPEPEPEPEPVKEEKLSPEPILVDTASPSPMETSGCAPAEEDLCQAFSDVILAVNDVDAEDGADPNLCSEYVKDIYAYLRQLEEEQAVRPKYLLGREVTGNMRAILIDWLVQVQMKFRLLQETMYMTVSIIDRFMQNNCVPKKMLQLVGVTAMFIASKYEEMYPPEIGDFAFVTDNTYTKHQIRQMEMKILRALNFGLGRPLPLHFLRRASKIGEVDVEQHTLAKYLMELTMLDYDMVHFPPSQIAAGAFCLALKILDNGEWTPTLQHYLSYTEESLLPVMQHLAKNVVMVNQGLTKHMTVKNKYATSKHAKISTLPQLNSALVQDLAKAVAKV
Chain of CDK6 (Q00534 whole entry, looked up): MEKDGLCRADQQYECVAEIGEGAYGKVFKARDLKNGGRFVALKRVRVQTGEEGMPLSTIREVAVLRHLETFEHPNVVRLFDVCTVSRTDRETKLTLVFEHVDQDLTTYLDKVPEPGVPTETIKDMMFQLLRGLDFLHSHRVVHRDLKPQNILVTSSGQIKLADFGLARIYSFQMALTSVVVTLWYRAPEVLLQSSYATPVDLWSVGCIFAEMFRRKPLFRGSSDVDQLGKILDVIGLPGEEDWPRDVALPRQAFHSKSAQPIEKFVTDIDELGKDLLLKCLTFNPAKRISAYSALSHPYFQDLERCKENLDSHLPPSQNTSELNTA
Chain of CDK6 (P24385 whole entry partner, looked up): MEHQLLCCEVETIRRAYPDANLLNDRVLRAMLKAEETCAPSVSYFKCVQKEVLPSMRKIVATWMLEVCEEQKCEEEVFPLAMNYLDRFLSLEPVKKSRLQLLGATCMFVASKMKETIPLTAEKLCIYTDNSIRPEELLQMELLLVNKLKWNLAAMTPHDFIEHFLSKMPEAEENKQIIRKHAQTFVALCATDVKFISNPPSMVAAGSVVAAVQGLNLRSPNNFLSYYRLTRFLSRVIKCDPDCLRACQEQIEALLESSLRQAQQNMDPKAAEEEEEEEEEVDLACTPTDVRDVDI
Chain of CDK4 (P11802 whole entry, looked up): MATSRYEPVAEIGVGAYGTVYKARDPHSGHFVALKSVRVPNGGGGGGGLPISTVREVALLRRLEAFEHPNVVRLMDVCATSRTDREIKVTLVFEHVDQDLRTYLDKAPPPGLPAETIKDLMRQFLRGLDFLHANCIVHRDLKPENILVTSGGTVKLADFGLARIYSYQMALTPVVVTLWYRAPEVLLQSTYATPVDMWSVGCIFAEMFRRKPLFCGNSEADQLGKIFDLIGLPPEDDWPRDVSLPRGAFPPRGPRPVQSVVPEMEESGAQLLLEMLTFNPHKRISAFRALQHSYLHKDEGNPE
Chain of CDK4 (P24385 whole entry partner, looked up): as the sequence (P24385 whole entry partner, looked up) above

SMILES | pIC50 (CDK4) | pIC50 (CDK1) | pIC50 (CDK6) | other results
Cc1c2c(nn1C)CCc1cnc(Nc3ccc(N4CCN(C)CC4)cc3)nc1-2 [Compound D1, reference compound] | – | – | – | inhibitory activity against CDK4 (in words) (CDK4): strong inhibitory activity; inhibitory activity against CDK1 (in words) (CDK1): strong inhibitory activity; inhibitory activity against CDK6 (in words) (CDK6): strong inhibitory activity; inhibitory activity against CDK2 (in words) (CDK2): strong inhibitory activity
CCN1CCN(Cc2ccc(Nc3ncc4c(n3)-c3c(nn(CC)c3C(C)C)CC4)nc2)CC1 [Compound P-2] | 8.40 | 6.37 | 7.42 | –
CCc1nc2c(n1C(C)C)-c1nc(Nc3ccc(CN4CCN(CC)CC4)cn3)ncc1CC2 [Compound P-3] | 8.22 | 6.04 | 7.23 | pIC50 (CDK2): 5.94
CCn1nc2c(c1C(C)C)-c1nc(Nc3ccc(N4CCNCC4)cn3)ncc1CC2 [Compound P-4, 8-ethyl-9-isopropyl-N-(5-(piperazin-1-yl)pyridin-2-yl)-6,8-dihydro-5H-pyrazolo[3,4-H]quinazolin-2-amine] | 8.30 | 5.10 | 7.48 | pIC50 (CDK2): 5.32
CCc1nc2c(n1C(C)C)-c1nc(Nc3ccc(CN4CCN(CC)CC4)cn3)ncc1C2 [Compound P-5] | 7.66 | 5.27 | 6.59 | –
CCN1CCN(c2ccc(Nc3ncc4c(n3)-c3c(nn(C)c3C(C)C)C4)nc2)CC1 [Compound P-7] | 8.22 | 5.07 | 7.38 | pIC50 (CDK2): 5.01
CC(C)c1c2c(nn1C)Cc1cnc(Nc3ccc(N4CCNCC4)cn3)nc1-2 [Compound P-8] | 8.00 | < 5.00 | 6.79 | pIC50 (CDK2): 5.08
c1cc(Nc2ncc3c(n2)-c2c(cnn2C2CCCC2)CC3)ncc1N1CCNCC1 [Compound P-9, 1-cyclopentyl-N-(5-(piperazin-1-yl)pyridin-2-yl)-4,5-dihydro-1H-pyrazolo[4,3H]quinazolin-8-amine] | 8.10 | 5.29 | 7.40 | pIC50 (CDK2): 5.84
CCN1CCN(Cc2ccc(Nc3ncc4c(n3)-c3c(cnn3C(C)C)CC4)nc2)CC1 [Compound P-10] | 7.80 | – | 6.88 | –
Cc1nc2c(n1C1CC1)-c1nc(Nc3ccc(N4CCNCC4)cn3)ncc1C2 [Compound P-11] | 7.37 | – | 6.78 | –
CCN1CCN(c2ccc(Nc3ncc4c(n3)-c3c(cnn3C(C)C)CC4)nc2)CC1 [Compound P-12] | 8.10 | < 5.00 | 7.44 | –
Cc1nc2c(n1C1CCCC1)-c1nc(Nc3ccc(N4CCNCC4)cn3)ncc1C2 [Compound P-13] | 7.64 | 5.25 | 7.37 | pIC50 (CDK2): 5.08
CC(C)c1c2c(nn1C)CCc1cnc(Nc3ccc(N4CCNCC4)cn3)nc1-2 [Compound P-14, 9-isopropyl-8-methyl-N-(5-(piperazin-1-yl)pyridin-2-yl)-6,8-dihydro-5H-pyrazolo[3,4-H]quinazolin-2-amine] | 8.30 | 5.99 | 7.70 | pIC50 (CDK2): 6.28
CCc1nc2c(n1CC)-c1nc(Nc3ccc(N4CCNCC4)cn3)ncc1C2 [Compound P-21] | 7.46 | 5.20 | 6.15 | pIC50 (CDK2): 5.30
CCc1nc2c(n1C(C)C)-c1nc(Nc3ccc(N4CCNCC4)cn3)ncc1C2 [Compound P-22] | 7.70 | – | 7.37 | –
CCc1nc2c(n1C(C)C)-c1nc(Nc3ccc(N4CCNCC4)cn3)ncc1CC2 [Compound P-23, 2-ethyl-1-isopropyl-N-(5-(piperazin-1-yl)pyridin-2-yl)-4,5-dihydro-1H-imidazo[4,5-H]quinazolin-8-amine] | 8.22 | 5.56 | 7.07 | pIC50 (CDK2): 5.88
CC(C)n1ncc2c1-c1nc(Nc3ccc(N4CCNCC4)cn3)ncc1CC2 [Compound P-25, 1-isopropyl-N-(5-(piperazin-1-yl)pyridin-2-yl)-4,5-dihydro-1H-pyrazolo[4,3H]quinazolin-8-amine] | 8.05 | < 5.00 | 7.51 | –
CC(C)c1c2c(nn1C(F)F)Cc1cnc(Nc3ccc(N4CCNCC4)cn3)nc1-2 [Compound P-27] | 8.22 | – | 8.10 | –

SMILES | pIC50 (CDK4) | pIC50 (CDK1) | pIC50 (CDK6) | other results
Cc1nc2c(n1CC1CC1)-c1nc(Nc3ccc(N4CCNCC4)cn3)ncc1C2 [Compound P-28] | 7.39 | – | 6.92 | –
c1cc(Nc2ncc3c(n2)-c2c(cnn2C2CCCCC2)CC3)ncc1N1CCNCC1 [Compound P-35] | 7.13 | – | 6.60 | –
c1cc(Nc2ncc3c(n2)-c2nn(C4CCCC4)cc2CC3)ncc1N1CCNCC1 [Compound P-36] | 6.86 | – | 6.15 | –
c1cc(Nc2ncc3c(n2)-c2c(cnn2C2CCOC2)CC3)ncc1N1CCNCC1 (stereo not drawn) [Compound P-37] | 7.39 | – | 6.44 | –
CCN1CCN(Cc2ccc(Nc3ncc4c(n3)-c3c(nc(C)n3C(C)C)CC4)nc2)CC1 [Compound P-41] | 8.30 | – | 7.36 | –
Cc1nn(C2CCCC2)c2c1CCc1cnc(Nc3ccc(N4CCNCC4)cn3)nc1-2 [Compound P-43] | 8.05 | – | 7.34 | –
CC(C)c1c2c(nn1C)CC(C)(C)c1cnc(Nc3ccc(N4CCNCC4)cn3)nc1-2 [Compound P-44] | 6.76 | – | 6.38 | –
CCN1CCN(Cc2ccc(Nc3ncc4c(n3)-c3c(nn(CC)c3C(C)C)C4)nc2)CC1 [Compound P-45] | 7.43 | – | 6.35 | –
CCn1nc2c(c1C(C)C)-c1nc(Nc3ccc(N4CCNCC4)cn3)ncc1C(C)(C)C2 [Compound P-48] | 7.01 | – | 6.05 | –
CCn1nc2c(c1C(C)C)-c1nc(Nc3ccc(N4CCNCC4)cn3)ncc1OC2 [Compound P-49] | 8.15 | – | 7.15 | –
CCN1CCN(Cc2ccc(Nc3ncc4c(n3)-c3c(nn(CC)c3C(C)C)C(C)(C)C4)nc2)CC1 [Compound P-50] | 8.22 | – | 7.40 | –
CC(C)n1ncc2c1-c1nc(Nc3ccc(N4CCNCC4)cn3)ncc1CC2(C)C [Compound P-51] | 7.38 | – | 6.93 | –
CC(C)n1nc(C#N)c2c1-c1nc(Nc3ccc(N4CCNCC4)cn3)ncc1CC2 [Compound P-52, 1-isopropyl-8-(5-(piperazin-1-yl)pyridin-2-ylamino)-4,5-dihydro-1H-pyrazolo[4,3-H]quinazolin-3-carbonitrile] | 8.22 | – | 7.48 | –
CC(=O)C1(C)Cc2cnc(Nc3ccc(N4CCNCC4)cn3)nc2-c2c1nn(C)c2C(C)C (stereo not drawn) [Compound P-55] | 6.89 | – | 6.28 | –
CC(C)c1c2c(nn1C)CC1(CC1)c1cnc(Nc3ccc(N4CCNCC4)cn3)nc1-2 [Compound P-56] | 6.99 | – | 6.08 | –
CC(C)c1c2c(nn1C)C(C)(C(C)O)Cc1cnc(Nc3ccc(N4CCNCC4)cn3)nc1-2 (stereo not drawn) [Compound P-60, 1-(9-isopropyl-6,8-dimethyl-2-(5-(piperazin-1-yl)pyridin-2-ylamino)-6,8-dihydro-5H-pyrazolo[3,4-H]quinazolin-6-yl)ethanol] | 6.80 | – | 6.12 | –
CC(=O)C1(C)Cc2cnc(Nc3ccc(N4CCNCC4)cn3)nc2-c2c1ncn2C(C)C (stereo not drawn) [Compound P-63] | 7.25 | – | 6.80 | –
Cc1nc2sc3cnc(Nc4ccc(N5CCNCC5)cn4)nc3c2n1C(C)C [Compound P-65] | 5.97 | – | < 5.52 | –
